In PubChem BioAssay (NCI):
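Five compound concentrations were applied to cells in 96-well plates for 48 hours; endpoints were derived by simple linear interpolation of the resulting dose-response curve. TGI: concentration producing complete growth inhibition.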

What was measured:
Assay in all cases: NCI-60 cell line screen, 48 h
MOLT-4 leukemia = tested on: MOLT-4 leukemia
MDA-MB-231 breast = tested on: MDA-MB-231 breast
MCF7 breast = tested on: MCF7 breast
NCI-H522 lung = tested on: NCI-H522 lung
HS 578T breast = tested on: HS 578T breast
UO-31 renal = tested on: UO-31 renal
SN12C renal = tested on: SN12C renal
LOX IMVI melanoma = tested on: LOX IMVI melanoma
CAKI-1 renal = tested on: CAKI-1 renal
COLO 205 colon = tested on: COLO 205 colon
HCC-2998 colon = tested on: HCC-2998 colon
RXF 393 renal = tested on: RXF 393 renal
OVCAR-3 ovarian = tested on: OVCAR-3 ovarian
OVCAR-8 ovarian = tested on: OVCAR-8 ovarian
SF-268 CNS = tested on: SF-268 CNS
HL-60(TB) leukemia = tested on: HL-60(TB) leukemia
HOP-92 NSCLC = tested on: HOP-92 NSCLC
A549 NSCLC = tested on: A549 NSCLC
OVCAR-5 ovarian = tested on: OVCAR-5 ovarian
MDA-MB-435 = tested on: MDA-MB-435
IGROV1 ovarian = tested on: IGROV1 ovarian
UACC-257 melanoma = tested on: UACC-257 melanoma
786-0 renal = tested on: 786-0 renal
SK-MEL-28 melanoma = tested on: SK-MEL-28 melanoma
NCI/ADR-RES ovarian = tested on: NCI/ADR-RES ovarian
HCT-116 colon = tested on: HCT-116 colon
RPMI-8226 leukemia = tested on: RPMI-8226 leukemia
HOP-62 NSCLC = tested on: HOP-62 NSCLC
PC-3 prostate = tested on: PC-3 prostate
MALME-3M melanoma = tested on: MALME-3M melanoma
NCI-H23 lung = tested on: NCI-H23 lung
KM12 colon = tested on: KM12 colon
BT-549 breast = tested on: BT-549 breast
HT29 colon = tested on: HT29 colon
SR leukemia = tested on: SR leukemia
ACHN renal = tested on: ACHN renal
NCI-H460 lung = tested on: NCI-H460 lung
SK-MEL-2 melanoma = tested on: SK-MEL-2 melanoma
T-47D breast = tested on: T-47D breast
HCT-15 colon = tested on: HCT-15 colon
DU-145 prostate = tested on: DU-145 prostate
CCRF-CEM leukemia = tested on: CCRF-CEM leukemia
EKVX NSCLC = tested on: EKVX NSCLC
SK-OV-3 ovarian = tested on: SK-OV-3 ovarian
MDA-N = tested on: MDA-N
M14 melanoma = tested on: M14 melanoma
NCI-H226 lung = tested on: NCI-H226 lung
SF-295 CNS = tested on: SF-295 CNS
U251 CNS = tested on: U251 CNS
A498 renal = tested on: A498 renal
SW-620 colon = tested on: SW-620 colon
OVCAR-4 ovarian = tested on: OVCAR-4 ovarian
TK-10 renal = tested on: TK-10 renal
SNB-19 CNS = tested on: SNB-19 CNS
SF-539 CNS = tested on: SF-539 CNS
SK-MEL-5 melanoma = tested on: SK-MEL-5 melanoma
K-562 leukemia = tested on: K-562 leukemia
DMS 114 small cell lung = tested on: DMS 114 small cell lung
M19-MEL melanoma = tested on: M19-MEL melanoma
SNB-75 CNS = tested on: SNB-75 CNS
UACC-62 melanoma = tested on: UACC-62 melanoma
SNB-78 CNS = tested on: SNB-78 CNS
DLD-1 colon = tested on: DLD-1 colon
XF 498 CNS = tested on: XF 498 CNS
KM20L2 colon = tested on: KM20L2 colon
LXFL 529 NSCLC = tested on: LXFL 529 NSCLC
DMS 273 small cell lung = tested on: DMS 273 small cell lung

Cc1ccc2c(ccc3c[n+]4ccccc4c(C)c32)c1
TGI (MOLT-4 leukemia): > 100 µM
TGI (MDA-MB-231 breast): 23.1 µM
TGI (MCF7 breast): 15.6 µM
TGI (NCI-H522 lung): 10.7 µM
TGI (HS 578T breast): 15.3 µM
TGI (UO-31 renal): > 100 µM
TGI (SN12C renal): 3.46 µM
TGI (LOX IMVI melanoma): 27.8 µM
TGI (CAKI-1 renal): 65.5 µM
TGI (COLO 205 colon): 3.84 µM
TGI (HCC-2998 colon): 17.9 µM
TGI (RXF 393 renal): > 100 µM
TGI (OVCAR-3 ovarian): 4.02 µM
TGI (OVCAR-8 ovarian): 16.2 µM
TGI (SF-268 CNS): 6.64 µM
TGI (HL-60(TB) leukemia): > 100 µM
TGI (HOP-92 NSCLC): 22.8 µM
TGI (A549 NSCLC): 40.9 µM
TGI (OVCAR-5 ovarian): 65 µM
TGI (MDA-MB-435): 17.1 µM
TGI (IGROV1 ovarian): 34.7 µM
TGI (UACC-257 melanoma): 5.59 µM
TGI (786-0 renal): 19.1 µM
TGI (SK-MEL-28 melanoma): 11.5 µM
TGI (NCI/ADR-RES ovarian): > 100 µM
TGI (HCT-116 colon): 27.2 µM
TGI (RPMI-8226 leukemia): 67.2 µM
TGI (HOP-62 NSCLC): 11.3 µM
TGI (PC-3 prostate): 15.9 µM
TGI (MALME-3M melanoma): 2.98 µM
TGI (NCI-H23 lung): 10.9 µM
TGI (KM12 colon): 2.5 µM
TGI (BT-549 breast): 5.74 µM
TGI (HT29 colon): 25.9 µM
TGI (SR leukemia): 46.3 µM
TGI (ACHN renal): 39 µM
TGI (NCI-H460 lung): > 100 µM
TGI (SK-MEL-2 melanoma): 11.6 µM
TGI (T-47D breast): 12.2 µM
TGI (HCT-15 colon): > 100 µM
TGI (DU-145 prostate): 26.6 µM
TGI (CCRF-CEM leukemia): > 100 µM
TGI (EKVX NSCLC): > 100 µM
TGI (SK-OV-3 ovarian): 44.8 µM
TGI (MDA-N): > 100 µM
TGI (M14 melanoma): 20.9 µM
TGI (NCI-H226 lung): 5.71 µM
TGI (SF-295 CNS): 27.2 µM
TGI (U251 CNS): 12.1 µM
TGI (A498 renal): > 100 µM
TGI (SW-620 colon): 22.8 µM
TGI (OVCAR-4 ovarian): 10.8 µM
TGI (TK-10 renal): 89.9 µM
TGI (SNB-19 CNS): 12.8 µM
TGI (SF-539 CNS): 9.83 µM
TGI (SK-MEL-5 melanoma): 2.47 µM
TGI (K-562 leukemia): > 100 µM

Clc1ccc(C2=Nc3ccccc3SC(c3ccc(Cl)c(Cl)c3)C2)c(Cl)c1 (stereo not drawn)
TGI (MOLT-4 leukemia): 18.1 µM
TGI (NCI-H522 lung): 28 µM
TGI (UO-31 renal): 28.1 µM
TGI (SN12C renal): 33.1 µM
TGI (LOX IMVI melanoma): 21.6 µM
TGI (CAKI-1 renal): 29.6 µM
TGI (COLO 205 colon): 35 µM
TGI (HCC-2998 colon): 27.8 µM
TGI (RXF 393 renal): 30.5 µM
TGI (OVCAR-3 ovarian): 26.1 µM
TGI (OVCAR-8 ovarian): 31.1 µM
TGI (DMS 114 small cell lung): 27.1 µM
TGI (SF-268 CNS): 19.9 µM
TGI (HL-60(TB) leukemia): 24.8 µM
TGI (HOP-92 NSCLC): 30.1 µM
TGI (A549 NSCLC): 43.6 µM
TGI (OVCAR-5 ovarian): 32.1 µM
TGI (IGROV1 ovarian): 30.7 µM
TGI (UACC-257 melanoma): 41.1 µM
TGI (M19-MEL melanoma): 32.2 µM
TGI (786-0 renal): 27.6 µM
TGI (SNB-75 CNS): 34.6 µM
TGI (UACC-62 melanoma): 29.4 µM
TGI (SK-MEL-28 melanoma): 30.3 µM
TGI (SNB-78 CNS): 35.5 µM
TGI (DLD-1 colon): 25.6 µM
TGI (HCT-116 colon): 23.4 µM
TGI (RPMI-8226 leukemia): 6.01 µM
TGI (HOP-62 NSCLC): 18.2 µM
TGI (MALME-3M melanoma): 29.9 µM
TGI (NCI-H23 lung): 34.2 µM
TGI (KM12 colon): 24.2 µM
TGI (XF 498 CNS): 26 µM
TGI (HT29 colon): 28.5 µM
TGI (ACHN renal): 27.6 µM
TGI (NCI-H460 lung): 34.4 µM
TGI (SK-MEL-2 melanoma): 31.5 µM
TGI (HCT-15 colon): 27.3 µM
TGI (CCRF-CEM leukemia): 17.1 µM
TGI (EKVX NSCLC): 33.6 µM
TGI (SK-OV-3 ovarian): 52.1 µM
TGI (M14 melanoma): 30.1 µM
TGI (NCI-H226 lung): 37.4 µM
TGI (SF-295 CNS): 17 µM
TGI (U251 CNS): 32 µM
TGI (A498 renal): 37.4 µM
TGI (SW-620 colon): 18.9 µM
TGI (OVCAR-4 ovarian): 36.6 µM
TGI (KM20L2 colon): 39.7 µM
TGI (TK-10 renal): 36.9 µM
TGI (SNB-19 CNS): 40 µM
TGI (SF-539 CNS): 32.9 µM
TGI (SK-MEL-5 melanoma): 32.3 µM
TGI (LXFL 529 NSCLC): 29.2 µM
TGI (DMS 273 small cell lung): 30 µM
TGI (K-562 leukemia): 22.3 µM
